Assay results as given in ChEMBL document CHEMBL1130982, “Diversity of C-linked neoglycopeptides for the exploration of subsite-assisted carbohydrate binding interactions” (Bioorg Med Chem Lett, 1998).

experiment: Inhibitory activity against binding of horseradish peroxidase labelled Maclura pomifera, isolated from the seeds of osage orange tree to poly (acrylamide-co-allyl alpha-Galactopyranoside

SMILES | IC50 [µM]
CC(=O)N[C@@H](CCCCN(CCC1OC(CO)C(O)C(O)C1O)CCC1OC(CO)C(O)C(O)C1O)C(=O)NCC(N)=O (stereo partly specified) | 1480
CC(=O)N[C@@H](CCCCNC(=O)c1cc(NC(=O)CNC(=O)[C@H]2CCCN2C(=O)C[C@@H]2O[C@@H](CO)[C@H](O)[C@H](O)[C@@H]2O)cc(NC(=O)CNC(=O)[C@@H]2CCCN2C(=O)C[C@H]2O[C@@H](CO)[C@H](O)[C@H](O)[C@@H]2O)c1)C(=O)NCC(=O)NCc1ccccc1 | 1500
CC(=O)N[C@@H](CCCCNC(=O)c1cc(NC(=O)CNC(=O)[C@H](C)NC(=O)C[C@H]2O[C@H](CO)[C@H](O)[C@H](O)[C@H]2O)cc(NC(=O)CNC(=O)[C@@H](C)NC(=O)C[C@H]2O[C@H](CO)[C@H](O)[C@H](O)[C@H]2O)c1)C(=O)NCC(=O)NCc1ccccc1 | 2840
CCN(CC)C(=O)CC1OC(CO)C(O)C(O)C1O (stereo unspecified) | 2570
CC(=O)N[C@@H](CCCCNC(=O)CC1OC(CO)C(O)C(O)C1O)C(=O)NCC(N)=O (stereo partly specified) | 4180
CCN(CC)C(=O)CNC(=O)[C@H](CCCCNC(=O)CN(CCC1OC(CO)C(O)C(O)C1O)C(=O)CC1OC(CO)C(O)C(O)C1O)NC(C)=O (stereo partly specified) | 4310
